According to ChEMBL document CHEMBL1124028, “Synthesis and antiviral activity of various 3'-azido analogues of pyrimidine deoxyribonucleosides against human immunodeficiency virus (HIV-1, HTLV-III/LAV)” (J Med Chem, 1988):

System: Human immunodeficiency virus 1
Experiment: Inhibition of HIV-1 replication in human peripheral blood mononuclear cells.
Assay type: functional, organism-based

[N-]=[N+]=N[C@H]1C[C@H](n2cc(C(F)(F)F)c(=O)[nH]c2=O)O[C@@H]1CO
EC50: > 100 µM

[N-]=[N+]=N[C@H]1C[C@H](n2cc(Br)c(=O)[nH]c2=O)O[C@@H]1CO
EC50: 1 µM

Cc1cn([C@H]2C[C@H](N=[N+]=[N-])[C@@H](CO)O2)c(=O)nc1N
EC50: 5.1 µM

[N-]=[N+]=N[C@H]1C[C@H](n2cc(F)c(N)nc2=O)O[C@@H]1CO
EC50: 1 µM

[N-]=[N+]=N[C@H]1C[C@H](n2ccc(N)nc2=O)O[C@@H]1CO
EC50: 1.2 µM

[N-]=[N+]=N[C@H]1C[C@H](n2cc(F)c(=O)[nH]c2=O)O[C@@H]1CO
EC50: 4.8 µM

[N-]=[N+]=N[C@@H]1CC(n2cc(I)c(=O)[nH]c2=O)O[C@@H]1CO (some centres not stated)
EC50: 1.1 µM

COc1cn([C@H]2C[C@H](N=[N+]=[N-])[C@@H](CO)O2)c(=O)[nH]c1=O
EC50: 70 µM

CSc1cn([C@H]2C[C@H](N=[N+]=[N-])[C@@H](CO)O2)c(=O)[nH]c1=O
EC50: > 100 µM

[N-]=[N+]=N[C@H]1C[C@H](n2cc(O)c(=O)[nH]c2=O)O[C@@H]1CO
EC50: ~10 µM

Cc1nn([C@H]2C[C@H](N=[N+]=[N-])[C@@H](CO)O2)c(=O)[nH]c1=O
EC50: > 100 µM

Cc1cn([C@H]2C[C@H](N=[N+]=[N-])[C@@H](CO)O2)c(=O)n(/C=C/C=O)c1=O
EC50: 0.01 µM

N#CSc1cn([C@H]2C[C@H](N=[N+]=[N-])[C@@H](CO)O2)c(=O)[nH]c1=O
EC50: 5.1 µM

N#CCOc1cn([C@H]2C[C@H](N=[N+]=[N-])[C@@H](CO)O2)c(=O)[nH]c1=O
EC50: 16 µM

C=CCOc1cn([C@H]2C[C@H](N=[N+]=[N-])[C@@H](CO)O2)c(=O)[nH]c1=O
EC50: > 100 µM

C#CCOc1cn([C@H]2C[C@H](N=[N+]=[N-])[C@@H](CO)O2)c(=O)[nH]c1=O
EC50: 38 µM

CCOc1cn([C@H]2C[C@H](N=[N+]=[N-])[C@@H](CO)O2)c(=O)[nH]c1=O
EC50: 54 µM

[N-]=[N+]=N[C@H]1C[C@H](n2cc(N)c(=O)[nH]c2=O)O[C@@H]1CO
EC50: 6.2 µM

CNc1cn([C@H]2C[C@H](N=[N+]=[N-])[C@@H](CO)O2)c(=O)[nH]c1=O
EC50: > 100 µM

CN(C)c1cn([C@H]2C[C@H](N=[N+]=[N-])[C@@H](CO)O2)c(=O)[nH]c1=O
EC50: > 100 µM

[N-]=[N+]=N[C@H]1C[C@H](n2ccc(=O)[nH]c2=O)O[C@@H]1CO [NAVURIDINE]
EC50: 0.2 µM

Cc1cn([C@H]2C[C@H](N=[N+]=[N-])[C@@H](CO)O2)c(=O)[nH]c1=O [ZIDOVUDINE]
EC50: 0.002 µM
